Measurements from publication PMC12186490, “Environmental pH controls antimicrobial production by human probiotic Streptococcus salivarius” (Journal of Bacteriology, 2025).

Test system: sar-BGC (sarD) expression in WT SAL
Experiment: sarD transcript levels by qRT-PCR after lactate supplementation of WT SAL
Format: cell-based, Streptococcus salivarius K12
Conditions: WT SAL at late-exponential growth (A600 ~ 2.0), fresh THY with sodium lactate, 15 minutes; relative to WT-LE growth; three biological replicates
Procedure: Fig 2 SAL upregulates sar-BGC expression in concert with environmental acidification. (A) Wild-type (WT) SAL was grown in THY broth, and samples were collected at the indicated time points. Growth medium pH, sar-BGC (sarD) transcript levels, and bacterial growth by absorption at wavelength 600 nm (A600) were determined. Right y-axes represent fold change in sar-BGC transcript levels (green) and A600 (red), whereas the left y-axis represents pH of the growth medium (black). Fold changes in transcript levels at indicated time points relative to starting culture (time point t = 0 h) are shown. Data are mean ± standard deviation for three biological replicates. (B) WT SAL grown in THY to late-exponential growth phase (LE, A600 ~ 2.0) was harvested by centrifugation, suspended in THY broth adjusted to indicated pH, and incubated for 15 minutes. […] P values assessed by t-test analyses relative to WT LE growth are shown (n.s, not significant; *, P < 0.05; ****, P < 0.0001). […]
SAL and other lactic acid bacteria acidify their environment via lactic acid production during their growth. […] After 15 min incubation, cells were collected and sarD transcript levels in each pH were assessed by quantitative real-time PCR (qRT-PCR). […] To test whether lactate acts as a signal for the induction of sar-BGC expression, we assessed sarD transcript levels in SAL grown in the presence of lactate. […]

With `CC(O)C(=O)[O-].[Na+]` (stereo not shown) [lactate, sodium lactate] the “induction of sar-BGC expression (sarD transcript levels)” value was “did not induce sar-BGC expression”.
